{
  "source": "paper PMC3711248",
  "about": "(Journal of medicinal chemistry, 2013)",
  "key": {"JTAg cells [1]": {"tested_on": "JTAg cells", "assay": "CD69 surface expression on JTAg cells", "settings": "[…] µM, 4.5 hours at 37°C, resting JTAg cells; DMSO MFI=451"}, "mice": {"tested_on": "mice", "assay": "Passive systemic anaphylaxis", "type": "in vivo, mouse", "settings": "PEP+/+ mice, 8b (20 µM) IP 1 h before DNP-HSA i.v., vs untreated groups"}, "BMMC [2]": {"tested_on": "BMMC", "assay": "Mast cell degranulation"}, "BMMC [3]": {"tested_on": "BMMC", "assay": "NF-AT luciferase reporter gene analysis in BMMC", "type": "cell-based, mouse"}, "JTAg cells [4]": {"tested_on": "JTAg cells", "assay": "Phospho-flow cytometry of ZAP-70", "settings": "[…] µM, 30 min pre-incubation, C305 stimulation 2 min, vs DMSO"}, "[5]": {"tested_on": "double-positive (DP) thymocytes", "assay": "Nur77 expression", "settings": "[…] µM, […] at 37°C, thymocytes from Nur77GFP mice; DMSO MFI=604"}, "[6]": {"tested_on": "double-positive (DP) thymocytes", "assay": "CD69 surface expression on mouse thymocytes", "settings": "[…] µM, […] at 37°C, thymocytes from Nur77GFP mice; DMSO MFI=381"}, "LYP": {"molecular_target": "T1, LYP (Homo sapiens, UniProt Q9Y2R2)", "T1 sequence (Q9Y2R2 1-303)": "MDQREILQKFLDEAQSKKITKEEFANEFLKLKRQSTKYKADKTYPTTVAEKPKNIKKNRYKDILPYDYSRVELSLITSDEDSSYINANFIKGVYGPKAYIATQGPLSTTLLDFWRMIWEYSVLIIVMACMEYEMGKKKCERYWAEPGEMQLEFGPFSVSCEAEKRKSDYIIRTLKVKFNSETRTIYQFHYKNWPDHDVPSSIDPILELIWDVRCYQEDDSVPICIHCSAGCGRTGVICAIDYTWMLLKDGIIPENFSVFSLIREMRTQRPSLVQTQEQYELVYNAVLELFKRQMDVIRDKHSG", "type": "biochemical"}},
  "data": [
    {"compound": "O=C(COc1ccc(-c2oc3cc(O)c(C(=O)O)cc3c2C#Cc2cccc(Cl)c2)cc1)NC1CC1", "note": "[Compound 8b, 3-((3-Chlorophenyl)ethynyl)-2-(4-(2-(cyclopropylamino)-2-oxoethoxy)phenyl)-6-hydroxybenzofuran-5-carboxylic Acid]", "values": [
      {"measurement": "CD69 expression, median fluorescence intensity (MFI)", "setting": "JTAg cells [1]", "value": 616},
      {"measurement": "susceptibility to passive systemic anaphylaxis (change in body temperature)", "setting": "mice", "value": "less susceptible to PSA"},
      {"measurement": "antigen-stimulated degranulation (release of β-hexosaminidase)", "setting": "BMMC [2]; PEP+/+ BMMC, C28 5 µM, 8b 5 and 20 µM for 1 h, DNP-HSA 200 ng/ml", "value": "down-regulated"},
      {"measurement": "residual degranulation", "setting": "BMMC [2]; PEP−/− BMMC", "value": "Neither compunds affected residual degranulation"},
      {"measurement": "basal and antigen-mediated NF-AT luciferase activity", "setting": "BMMC [3]; PEP+/+ BMMC, C28 5 µM, 8b 5 and 20 µM for 1 h, DNP-HSA 8 h", "value": "dose dependent down-regulation"},
      {"measurement": "residual NF-AT activity", "setting": "BMMC [3]; PEP−/− BMMC", "value": "No significant effect"},
      {"measurement": "basal and TCR-stimulated phosphorylation of ZAP-70 on Tyr319", "setting": "JTAg cells [4]", "value": "increased"},
      {"measurement": "Nur77 expression by GFP cell fluorescence, MFI", "setting": "[5]", "value": 1120},
      {"measurement": "CD69 expression, MFI", "setting": "[6]", "value": 758}
    ]},
    {"compound": "O=C(O)c1cc2c(C#Cc3cccc(Cl)c3)c(-c3ccccc3)oc2cc1O", "note": "[Compound 4c]", "values": [
      {"measurement": "improvement of LYP inhibitory potency compared to Core 1", "setting": "LYP", "value": 50, "unit": "fold"}
    ]},
    {"compound": "O=C(O)c1cc2c(C#Cc3ccc(Oc4ccccc4)cc3)c(-c3ccccc3)oc2cc1O", "note": "[Compound 4i]", "values": [
      {"measurement": "improvement of LYP inhibitory potency compared to Core 1", "setting": "LYP", "value": 50, "unit": "fold"}
    ]}
  ]
}
